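All cell lines were grown in 96-well plates and treated with compound for 48 hours. GI50 marks 50% less growth.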 Active and inactive are the calls of the source. Cut-off read from the data, not from the text of the source: active = GI50 up to about 1.1 µM and inactive = higher.
How the values were obtained:
Assay in all cases: NCI-60 cell line screen, 48 h
CAKI-1 = test system: CAKI-1
DLD-1 = test system: DLD-1
DMS-114 = test system: DMS-114
DMS-273 = test system: DMS-273
HOP-18 = test system: HOP-18
KM-20L2 = test system: KM-20L2
LXFL 529 = test system: LXFL 529
M19-MEL = test system: M19-MEL
NCI-H522 = test system: NCI-H522
SK-MEL-2 = test system: SK-MEL-2
SNB-78 = test system: SNB-78
SR = test system: SR
A549 = test system: A549
ACHN = test system: ACHN
CCRF-CEM = test system: CCRF-CEM
COLO 205 = test system: COLO 205
EKVX = test system: EKVX
HCC 2998 = test system: HCC 2998
HCT-116 = test system: HCT-116
HCT-15 = test system: HCT-15
HL-60 = test system: HL-60
HOP-62 = test system: HOP-62
HOP-92 = test system: HOP-92
HT-29 = test system: HT-29
IGROV-1 = test system: IGROV-1
K562 = test system: K562
KM12 = test system: KM12
LOX IMVI = test system: LOX IMVI
M14 = test system: M14
MOLT-4 = test system: MOLT-4
NCI-H23 = test system: NCI-H23
NCI-H460 = test system: NCI-H460
OVCAR-3 = test system: OVCAR-3
OVCAR-4 = test system: OVCAR-4
OVCAR-5 = test system: OVCAR-5
OVCAR-8 = test system: OVCAR-8
RPMI-8226 = test system: RPMI-8226
RXF 393 = test system: RXF 393
SF-268 = test system: SF-268
SF-539 = test system: SF-539
SK-MEL-28 = test system: SK-MEL-28
SK-MEL-5 = test system: SK-MEL-5
SN12C = test system: SN12C
SNB-19 = test system: SNB-19
SNB-75 = test system: SNB-75
SW-620 = test system: SW-620
TK-10 = test system: TK-10
U-251 = test system: U-251
UACC-257 = test system: UACC-257
UACC-62 = test system: UACC-62
UO-31 = test system: UO-31
NCI-H226 = test system: NCI-H226

SMILES: COc1ccc2c(c[n+](C)c3c4cc5c(cc4ccc23)OCO5)c1OC [CHELERYTHRINE CHLORIDE]
- GI50 (CAKI-1): 1.91 µM (inactive)
- GI50 (DLD-1): 1.7 µM (inactive)
- GI50 (DMS-114): 2.18 µM (inactive)
- GI50 (DMS-273): 2.04 µM (inactive)
- GI50 (HOP-18): 1.8 µM (inactive)
- GI50 (KM-20L2): 1.74 µM (inactive)
- GI50 (LXFL 529): 1.73 µM (inactive)
- GI50 (M19-MEL): 1.6 µM (inactive)
- GI50 (NCI-H522): 2.14 µM (inactive)
- GI50 (SK-MEL-2): 2.04 µM (inactive)
- GI50 (SNB-78): 2 µM (inactive)
- GI50 (SR): 1.28 µM (inactive)

SMILES: O=C1CCC(c2ccccc2)=NN1c1nsc2ccccc12
- GI50 (A549): > 100 µM (inactive)
- GI50 (ACHN): > 100 µM (inactive)
- GI50 (CCRF-CEM): 61.4 µM (inactive)
- GI50 (COLO 205): > 100 µM (inactive)
- GI50 (DMS-114): 62.7 µM (inactive)
- GI50 (DMS-273): 95.9 µM (inactive)
- GI50 (EKVX): 82.6 µM (inactive)
- GI50 (HCC 2998): 60.8 µM (inactive)
- GI50 (HCT-116): 99.3 µM (inactive)
- GI50 (HCT-15): > 100 µM
- GI50 (HL-60): > 100 µM (inactive)
- GI50 (HOP-18): 19.6 µM (inactive)
- GI50 (HOP-62): > 100 µM (inactive)
- GI50 (HOP-92): > 100 µM (inactive)
- GI50 (HT-29): > 100 µM (inactive)
- GI50 (IGROV-1): 97.9 µM (inactive)
- GI50 (K562): 74 µM (inactive)
- GI50 (KM-20L2): > 100 µM (inactive)
- GI50 (KM12): > 100 µM (inactive)
- GI50 (LOX IMVI): > 100 µM (inactive)
- GI50 (LXFL 529): > 100 µM (inactive)
- GI50 (M14): > 100 µM (inactive)
- GI50 (M19-MEL): > 100 µM (inactive)
- GI50 (MOLT-4): 60 µM (inactive)
- GI50 (NCI-H23): > 100 µM (inactive)
- GI50 (NCI-H460): 47.9 µM (inactive)
- GI50 (OVCAR-3): 83.8 µM (inactive)
- GI50 (OVCAR-4): > 100 µM (inactive)
- GI50 (OVCAR-5): > 100 µM (inactive)
- GI50 (OVCAR-8): > 100 µM (inactive)
- GI50 (RPMI-8226): 70.1 µM (inactive)
- GI50 (RXF 393): > 100 µM (inactive)
- GI50 (SF-268): > 100 µM (inactive)
- GI50 (SF-539): > 100 µM (inactive)
- GI50 (SK-MEL-28): > 100 µM (inactive)
- GI50 (SK-MEL-2): > 100 µM (inactive)
- GI50 (SK-MEL-5): > 100 µM (inactive)
- GI50 (SN12C): > 100 µM (inactive)
- GI50 (SNB-19): > 100 µM (inactive)
- GI50 (SNB-75): 7.21 µM (inactive)
- GI50 (SNB-78): > 100 µM (inactive)
- GI50 (SR): 58.9 µM (inactive)
- GI50 (SW-620): > 100 µM (inactive)
- GI50 (TK-10): > 100 µM (inactive)
- GI50 (U-251): > 100 µM (inactive)
- GI50 (UACC-257): > 100 µM (inactive)
- GI50 (UACC-62): > 100 µM (inactive)
- GI50 (UO-31): > 100 µM (inactive)

SMILES: COc1cc(C2C(=O)C(Cl)N2Nc2nc(C)cc(O)n2)cc(OC)c1OC (centres undefined)
- GI50 (A549): 27.9 µM (inactive)
- GI50 (ACHN): 11.1 µM (inactive)
- GI50 (CCRF-CEM): < 0.01 µM (active)
- GI50 (COLO 205): > 10 µM (inactive)
- GI50 (DMS-114): 8.67 µM (inactive)
- GI50 (DMS-273): 10.4 µM (inactive)
- GI50 (EKVX): 33.3 µM (inactive)
- GI50 (HCC 2998): 12.9 µM (inactive)
- GI50 (HCT-116): 16.2 µM (inactive)
- GI50 (HCT-15): 11.5 µM
- GI50 (HL-60): 9.84 µM (inactive)
- GI50 (HOP-18): 2.67 µM (inactive)
- GI50 (HOP-62): 7.21 µM (inactive)
- GI50 (HOP-92): 16.9 µM (inactive)
- GI50 (HT-29): 23.8 µM (inactive)
- GI50 (IGROV-1): 10.1 µM (inactive)
- GI50 (K562): 9.55 µM (inactive)
- GI50 (KM-20L2): 22.6 µM (inactive)
- GI50 (KM12): 19 µM (inactive)
- GI50 (LOX IMVI): 10.5 µM (inactive)
- GI50 (LXFL 529): 12.9 µM (inactive)
- GI50 (M14): 12.5 µM (inactive)
- GI50 (M19-MEL): 18.7 µM (inactive)
- GI50 (MOLT-4): 10.6 µM (inactive)
- GI50 (NCI-H226): 22.1 µM (inactive)
- GI50 (NCI-H23): 15.4 µM (inactive)
- GI50 (NCI-H460): 9.35 µM (inactive)
- GI50 (OVCAR-3): 4.91 µM (inactive)
- GI50 (OVCAR-4): 16.1 µM (inactive)
- GI50 (OVCAR-5): 33 µM (inactive)
- GI50 (OVCAR-8): 17.1 µM (inactive)
- GI50 (RPMI-8226): > 10 µM (inactive)
- GI50 (RXF 393): 12.3 µM (inactive)
- GI50 (SF-268): 7.01 µM (inactive)
- GI50 (SF-539): 13.5 µM (inactive)
- GI50 (SK-MEL-28): 17 µM (inactive)
- GI50 (SK-MEL-2): 11.2 µM (inactive)
- GI50 (SK-MEL-5): 12.9 µM (inactive)
- GI50 (SN12C): 14.7 µM (inactive)
- GI50 (SNB-19): 30.4 µM (inactive)
- GI50 (SNB-75): 2.33 µM (inactive)
- GI50 (SNB-78): 12.4 µM (inactive)
- GI50 (SR): 11.6 µM (inactive)
- GI50 (SW-620): 22.2 µM (inactive)
- GI50 (TK-10): 24.3 µM (inactive)
- GI50 (U-251): 13.3 µM (inactive)
- GI50 (UACC-257): 22.5 µM (inactive)
- GI50 (UACC-62): > 10 µM (inactive)
- GI50 (UO-31): 13.4 µM (inactive)

Reference: ChEMBL document CHEMBL1201862, “PubChem BioAssay data set” (2004)
